The values below are quoted from earlier work in US7687082B2, “Complementary compositions to reduce blood glucose levels and treat diabetes” (Astrum Therapeutics Pty. Ltd., priority 2005, dated 2010).

The test system of data set [1] is humans. Particulars: compared to baseline.
Data set [2] concerns the target T1, adenosine triphosphate (ATP) citrate lyase (Homo sapiens, UniProt P53396).
T1 sequence (P53396 1-1101): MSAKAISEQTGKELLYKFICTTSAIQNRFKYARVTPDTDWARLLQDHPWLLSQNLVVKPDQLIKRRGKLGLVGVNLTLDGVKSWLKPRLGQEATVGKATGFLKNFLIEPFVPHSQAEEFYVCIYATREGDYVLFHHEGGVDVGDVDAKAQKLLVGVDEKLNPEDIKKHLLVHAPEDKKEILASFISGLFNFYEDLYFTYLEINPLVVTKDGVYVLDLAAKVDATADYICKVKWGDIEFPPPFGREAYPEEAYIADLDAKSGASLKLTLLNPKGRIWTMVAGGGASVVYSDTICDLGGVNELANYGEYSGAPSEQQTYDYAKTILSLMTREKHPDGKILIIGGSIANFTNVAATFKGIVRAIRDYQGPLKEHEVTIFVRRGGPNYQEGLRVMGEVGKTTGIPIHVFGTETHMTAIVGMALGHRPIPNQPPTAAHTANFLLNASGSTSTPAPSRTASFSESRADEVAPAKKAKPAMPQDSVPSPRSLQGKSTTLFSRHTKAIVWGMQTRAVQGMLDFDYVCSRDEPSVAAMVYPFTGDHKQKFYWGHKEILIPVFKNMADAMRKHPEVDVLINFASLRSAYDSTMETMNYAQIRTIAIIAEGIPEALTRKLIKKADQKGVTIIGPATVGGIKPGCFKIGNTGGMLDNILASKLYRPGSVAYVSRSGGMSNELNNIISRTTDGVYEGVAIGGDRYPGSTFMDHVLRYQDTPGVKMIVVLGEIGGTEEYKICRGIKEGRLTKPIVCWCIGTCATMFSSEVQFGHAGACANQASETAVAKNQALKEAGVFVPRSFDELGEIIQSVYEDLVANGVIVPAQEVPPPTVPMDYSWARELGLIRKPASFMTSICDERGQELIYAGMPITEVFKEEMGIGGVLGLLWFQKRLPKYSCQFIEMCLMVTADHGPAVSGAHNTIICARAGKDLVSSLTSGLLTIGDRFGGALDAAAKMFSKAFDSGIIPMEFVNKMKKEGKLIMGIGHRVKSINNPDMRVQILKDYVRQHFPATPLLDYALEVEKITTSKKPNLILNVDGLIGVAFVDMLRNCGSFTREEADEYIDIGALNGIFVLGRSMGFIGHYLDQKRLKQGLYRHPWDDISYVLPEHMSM

Data set [3] relates to T2DM patients. Particulars: 200 μg twice daily, three weeks.
In data set [4] the test system is timed-pregnant Sprague-Dawley rats. Particulars: rat, in vivo.
Data set [5] has as its system humans. Particulars: in vivo.
For another data set, the system named is rats. Particulars: rat, in vivo.
Data set [6] relates to diabetes mellitus patients.
For a further data set, the system named is T2DM subjects. Particulars: 600 mg twice daily, 4 weeks.
Data set [7] deals with T2DM patients. Particulars: 12 weeks, compared to placebo control.
For data set [8] the following is noted: with food.

Like-named read-outs stand apart in the source and are kept apart here.

As for `O=C(O)CC(O)(C(=O)O)C(O)C(=O)O` (single isomer, unassigned; (-)) [(−)-HCA, (−)-hydroxycitric acid], in the data set with humans [1] (2.8 g), the “decreased body mass index (BMI)” value was −5 to −6%, the decreased body weight was −5 to −6%, the “decreased low density lipoprotein (LDL)” value is −13.2% and the “decreased total cholesterol (TC)” value was −7.2%. Besides, the “increased high density lipoprotein (HDL)” value in the data set with humans [1] (2.8 g) is given as “+7.3%”. Moreover, in the data set on humans [1] (end of study), the “urine level of acetaldehyde” value is “+83.1%”, the “urine level of acetone” value is reported as “+35.6%”, the “urine level of formaldehyde” value is recorded as “+106.4%” and the “urine level of malondialdehyde” value is “+88.4%”. In [2], the “inhibition of ATP citrate lyase” value is given as “potent inhibitor”.

In the case of `[Cr]` [chromium], the reduction in triglycerides in the data set on T2DM patients [3] (compared to baseline) was −10.5%. The reduction in glucose with T2DM patients [3] (compared to baseline, p<0.001) is recorded as −21%. Besides, the reduction in cholesterol with T2DM patients [3] (compared to baseline, p<0.02) is reported as −9.4%. The “glycated hemoglobin (HbA1C)” value in the data set on T2DM patients [3] (from 8.2% at baseline, p<0.01) is 7.6%.

Take `CCN(CC)CCO` [diethylethanolamine]: in data set [4], the “reduction of body weight” value was 9.5% and the “reduction of weight gain” value is given as 48%. The individuals developing asthma with humans [5] is given as 0.6%. Also, the “findings in respiratory epithelium of the anterior nasal turbinate” value with rats was “inflammatory cell infiltration, focal hyperplasia, and squamous metaplasia”.

Consider `O=C(O)CCCCC1CCSS1` (stereo not drawn) [α-LA, α-lipoic acid], for which the “decrease of levels of peroxides” value in [6] is 34%. Further, the results for the “increases in glucose disposal” value in the data set on T2DM subjects (lean T2DM subjects compared to lean controls) and in the data set on T2DM subjects (obese T2DM subjects compared to obese controls) were 50% and 42%, respectively.

As for chromium picolinate [CrPic], the insulin level result in the data set on T2DM patients [7] was “significant decrease”. Besides, in the data set on T2DM patients [7] (p<0.001), the “improvement in fasting glucose” value was 0.44 mM and the “improvement in post-prandial serum glucose” value is recorded as 1.97 mM.

Turning to konjac mannan, in [8], the “decreased LDL” value is reported as −23% and the “decreased TC” value is −12.7%. Moreover, in data set [8] (average), the “generalized loss of weight” value was 2.75 kg. The “reduced fasting and postprandial levels of glucose” value in data set [8] (on average) was −22%.
